In data set [1] the test system is HepG2 cells. Briefly: Cell viability in the presence of a mitochondrial inhibitor (rotenone 10 μM). Particulars: for viability at 10 µM: Homo sapiens, read-out: CELL VIABILITY [%]. Type of data set: cell-based. The protocol:
(§1) Cytoprotection of HepG2 cells by naphthoquinones was quantified in the presence of the mitochondrial toxin, rotenone. Briefly, HepG2 cells were seeded in 96-well plates at 5000 cells/well in DMEM with 0.3 g/l glucose, 10% FBS and Penicillin-Streptomycin-Glutamine. After overnight incubation under standard conditions, cells were treated with the test compounds (10 μM) for 2 days before cells were challenged with 1 μM rotenone in the presence of 10 μM test compounds in Hank's balanced salt solution (HBSS) for 6 hours. This was followed by post-incubation for an additional 18 hours with only 10 μM test compounds in HBSS. For measurement of cell viability, cells were washed with 100 μL PBS twice and then lysed using 40 μL lysis solution (4 mM EDTA, 0.2% Triton X-100) for 5 min at room temperature (RT) on an orbital shaker at 200 rpm. Then 10 μL of the lysate was mixed with 90 μL of enzyme-substrate mixture (as described above) in a white 96 well plate and luminescence was measured immediately using a plate-reader (Fluoroscan Ascent, Thermo Scientific). The data is expressed as % viability compared to the untreated (no-rotenone) control.
The cytoprotective effects of representative compounds of Formula (I) were further examined in vitro in response to rotenone toxicity at (10 μM). […] Cells were treated with the representative compounds of Formula (I) compounds (10 μM) for 2 days before cells were challenged with 10 μM rotenone.
Vitamin K, Menadione and Idebenone were used as comparative controls.

Data set [2] relates to HepG2 cells. In words: Acute ATP rescue assay (impaired mitochondrial function, rotenone). Type of data set: cell-based. The settings on record: for ATP rescue (in words): HepG2, rotenone, comment on Table 4; for activity at 1 µM: Homo sapiens, 1 h. The protocol: HepG2 cells were seeded at a density of 5000 cells per well in a 96-well plate and incubated for 24 hours in DMEM with 0.3 g/l glucose, 10% FBS and Penicillin-Streptomycin-Glutamine. Cells were treated with 1 μM quinones in presence or absence of rotenone (10 μM), for 60 minutes in glucose-free DMEM ATP levels were quantified using luminescence from the ATP-dependent enzymatic oxidation of luciferin by luciferase. Cells were lysed in a volume of 40 μl (4 mM EDTA, 0.2% Triton X-100) for five minutes at room temperature (RT) on an orbital shaker at 200 rpm. […] Luminescence was quantified immediately using a multimode plate reader (Fluoroscan Ascent, Thermo Scientific). ATP levels were standardized to protein levels using a commercial BCA assay (Protein DC; BioRad) and changes were calculated as percentage relative to levels of DMSO-treated control cells. Data is expressed as % ATP compared to the untreated (no-rotenone) control.
Vitamin K, menadione and idebenone were used as comparative controls. DMSO was used as a control.

The subject of data set [3] is HepG2 cells. In words: Rescue of cell viability in the presence of a mitochondrial inhibitor (rotenone 1 μM). Particulars: for viability at 10 µM: Homo sapiens. The format is cell-based. The protocol: as §1
The extent of protection of cellular viability against a rotenone challenge of representative compounds of Formula (I) is shown below in Table 5. Vitamin K, Menadione and Idebenone were used as comparative controls. DMSO was used as a control.

Data set [4] relates to HepG2 cells. In words: Extracellular lactate levels, enzyme-linked colorimetric assay. Type of data set: cell-based. Particulars: HepG2 culture medium; for Extracellular lactate [% control]: 25 mM glucose, supernatant after 48 h, standardized to protein; for Effect on lactate production (in words): comment on the lactate table. The protocol: Lactate concentrations in culture medium were determined by an enzyme-linked colorimetric assay. Briefly, 150,000 HepG2 cells were seeded in normal growth media (DMEM, 10% FCS, Pen/Strep) in each well of a 6-well plate (Life Science, USA) and incubated for 24 h. The media was replaced with growth media containing (25 mM glucose,) with and without test compounds. Three untreated wells containing only cells were considered the experimental baseline control and all compounds were tested in three different wells simultaneously. Supernatants were collected after 48 h and transferred into 96-well format. After the addition of 90 μl of reaction buffer (10 mM KH2PO4 pH 7.8, 1 mg/ml BSA, 0.5 mM PMS, 2 mM EDTA, 0.6 mM DCPIP, 0.8 mM NAD+, 5 U/ml glutamate-pyruvate-transaminase, 1.5 mM glutamate, 12.5 U/ml lactate dehydrogenase) the plate was incubated at 30° C. inside a multimode plate reader (Multiscan Go, Thermo Scientific) and absorbance was measured at 600 nm over a period of 100 minutes. A standard curve was generated using media spiked with known lactate concentrations. Finally, protein levels were quantified and the lactate concentration of each well was standardized to its protein content and was then expressed as % of control.
The extent of lactate reduction in the cell culture media by the test compounds of the subject invention and the Comparative Compounds vitamin K, menadione and idebenone is shown below in Table 6.

The subject of data set [5] is LHON model induced by intravitreal rotenone in C57BL/6 mouse. In words: Leber's hereditary optic neuropathy (LHON) mouse model, optomotor response. Type of data set: in vivo. The settings on record: rotenone in left eye, 200 mg/kg orally in food. The protocol:
FIG. 5: Efficacy of representative compounds of Formula (I) in leber's hereditary optic neuropathy (LHON) mouse model. LHON induced by rotenone injection in the left eye (5 μM) in C57BL/6 mouse model (Refer to Heitz, F. D et al. (2012). PLoS One., 7(9), e45182). […] Representative compounds (UTA 37 and UTA 77) and idebenone administered at 200 mg/kg over the observation period.
LHON model was induced by intravitreal injection of rotenone into the left eye in C57BL/6 mouse model as described by Heitz et al. 2012. Representative compounds (UTA 37 and UTA 77) and idebenone administered at 200 mg/kg over the observation period. Vision loss was measured by assessing number of head turns.
C57BL/6 mice (male, 8-11 weeks of age, average body weight≈25 g) were used in accordance with the Australian code for the use of animals for scientific purposes and under the required animal ethics approval from the University of Tasmania (UTAS) Animal Ethics Committee (Approval number A0016080). Animals were given at least seven days to acclimatise to the animal facility to reduce stress induced by transportation before being used for behavioural testing. All mice were supplied orally with test compounds by mixing test compounds into individual daily food portions as described previously (Heitz, F. D. et al. (2012). PLoS One., 7(9), e45182). […]

Data set [6] has as its system HepG2 cells. Briefly: ATP rescue in the presence of a mitochondrial inhibitor (rotenone 10 μM). Type of data set: cell-based. The settings on record: compounds 10 uM for 2 days, then 10 μM rotenone challenge.
Method: The extent of ATP rescue of representative compounds of Formula (I) were further examined in vitro in response to rotenone toxicity at (10 μM). […] Cells were treated with the representative compounds of Formula (I) compounds (10 μM) for 2 days before cells were challenged with 10 μM rotenone.
The mark [7] stands for this setting: HepG2, 1 μM quinones with rotenone 10 μM, 60 minutes, glucose-free DMEM, % ATP compared to untreated (no-rotenone) control.

Data on six compounds can be found in patent US10934253B2, “Therapeutic compounds and methods” (UNIVERSITY OF TASMANIA, priority 2017, dated 2021).

For orientation: viability means a read-out of living cells in per cent, often relative to untreated cells. Broadly, the melting point is the temperature, or range, at which the solid turns liquid.

In the case of `CC1=C(CCCCCCCCCCO)C(=O)c2ccccc2C1=O` [UTA #2, 2-(10-Hydroxydecyl)-3 methyl-1,4-naphthoquinone], the melting point lay in the range of 74 to 75 °C. Also, the viability at 10 µM in the data set on HepG2 cells [1] (HepG2, 48 h) is 68.9%.
In the case of `CC1=CC(=O)c2ccccc2C1=O` [Menadione, reference compound], the “ATP rescue (in words)” value in the data set on HepG2 cells [2] is recorded as “no or minor effects”. The same compound displayed an activity at 1 µM in the data set with HepG2 cells [2] (setting [7]) of 30.6%. Besides, the viability at 10 µM in the data set on HepG2 cells [3] (HepG2) was found to be 64%. For the same compound, the viability at 10 µM in the data set with HepG2 cells [1] (HepG2, 48 h) was 64%. In addition, in the data set on HepG2 cells [4], the “Extracellular lactate [% control]” value is listed as 163.3 % control and the “Effect on lactate production (in words)” value is reported as “increase lactate concentrations”.
`COC1=C(OC)C(=O)C(CCCCCCCCCCO)=C(C)C1=O` [Idebenone, idebenone, reference compound] registered an activity at 1 µM with HepG2 cells [2] (setting [7]) of 81%. In the data set on HepG2 cells [3] (HepG2, 10 μM test compound 2 days, 1 μM rotenone challenge 6 hours, 18 hours post-incubation, % of untreated (no-rotenone) control, read-out: Viability [%]), the viability at 10 µM was found to be 66.2%. Also, the viability at 10 µM in the data set on HepG2 cells [1] (48 h, HepG2, compounds 10 uM for 2 days, then 10 μM rotenone challenge) was 66.2%. For the same compound, in the data set on HepG2 cells [4], the “Extracellular lactate [% control]” value amounted to 111.9 % control and the “Effect on lactate production (in words)” value is on record as “increase lactate concentrations”.
Take `CC1=C(CCCCCC(=O)O)C(=O)c2ccccc2C1=O` [UTA #70]: the activity at 1 µM with HepG2 cells [2] (setting [7]) is 91.8%. For the same compound, in the data set with HepG2 cells [1] (HepG2, 48 h), the viability at 10 µM came out at 66.8%. For the same compound, the “Extracellular lactate [% control]” value in the data set on HepG2 cells [4] stood at 73.3 % control.
Turning to `CC1=C(CCCC(=O)N[C@@H](Cc2ccccc2)C(=O)O)C(=O)c2ccccc2C1=O` [UTA #37, (S)-2-(4-(3-methyl-1,4-naphthoquinone-2-yl)butanamido)-3-phenylpropanoic Acid], the viability at 10 µM in the data set on HepG2 cells [3] (HepG2) was 100%; with HepG2 cells [1] (HepG2, 48 h), 100%. Besides, the “Protection of visual acuity (head turns, optomotor response; in words)” value in data set [5] is “Statistically significant protection of visual acuity”.
Vitamin K [reference compound]: the “ATP rescue (in words)” value with HepG2 cells [2] is on record as “no or minor effects”. Moreover, the “ATP rescue [%]” value with HepG2 cells [2] (setting [7]) came out at 3.5%. Moreover, in the data set with HepG2 cells [3] (HepG2, rotenone, comment on Table 5), the “Protection of cell viability (in words)” value is “no protective effect”. Besides, the “Viability [%]” value in the data set on HepG2 cells [3] (HepG2, 10 μM test compound 2 days, 1 μM rotenone challenge 6 hours, 18 hours post-incubation, % of untreated (no-rotenone) control) turned out to be 14.5%. In addition, in the data set with HepG2 cells [1] (HepG2, compounds 10 uM for 2 days, then 10 μM rotenone challenge), the “CELL VIABILITY [%]” value amounted to 14.5%. Moreover, the “% ATP RESCUE” value in the data set with HepG2 cells [6] stood at 3.5%. In the data set on HepG2 cells [4], the “Extracellular lactate [% control]” value is 92.0 % control and the “Effect on lactate production (in words)” value was “slight but non-significant effect”.
